Results published in patent publication US10059701B2 (Merck Patent GmbH, priority 2015, dated 2018).

Columns and labels:
[1] = molecular target: T1, IRAK1 (Homo sapiens, UniProt P51617); assay: IRAK1 enzymatic assay (ADP-Glo luminescence); format: biochemical; settings: purified human recombinant His-TEV-IRAK1 (194-712)
T1 construct: His-TEV-IRAK1 (194-712); His (N); TEV cleavage site (N)
Procedure, shortened: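 Recombinant human His-TEV-IRAK1 (194-712), 0.3 μg/ml, preincubated 15 min at RT with compounds (10 μM to 0.5 nM) in 50 mM Hepes pH 7.0, 10 mM MgCl2, 2 mM DTT, 0.1% BSA. ATP-started reaction run 2 hours at RT; ADP formed from ATP hydrolysis/autophosphorylation read by ADP-Glo luminescence.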

[2] = molecular target: T2, IRAK4 (Homo sapiens, UniProt Q9NWZ3); assay: IRAK4 enzymatic assay (ADP-Glo luminescence); format: biochemical; settings: purified human recombinant His-TEV-IRAK4 (1-460), ATP 2 μM
T2 construct: His-TEV-IRAK4 (1-460); His (N); TEV cleavage site (N)
T2 sequence (Q9NWZ3 1-460): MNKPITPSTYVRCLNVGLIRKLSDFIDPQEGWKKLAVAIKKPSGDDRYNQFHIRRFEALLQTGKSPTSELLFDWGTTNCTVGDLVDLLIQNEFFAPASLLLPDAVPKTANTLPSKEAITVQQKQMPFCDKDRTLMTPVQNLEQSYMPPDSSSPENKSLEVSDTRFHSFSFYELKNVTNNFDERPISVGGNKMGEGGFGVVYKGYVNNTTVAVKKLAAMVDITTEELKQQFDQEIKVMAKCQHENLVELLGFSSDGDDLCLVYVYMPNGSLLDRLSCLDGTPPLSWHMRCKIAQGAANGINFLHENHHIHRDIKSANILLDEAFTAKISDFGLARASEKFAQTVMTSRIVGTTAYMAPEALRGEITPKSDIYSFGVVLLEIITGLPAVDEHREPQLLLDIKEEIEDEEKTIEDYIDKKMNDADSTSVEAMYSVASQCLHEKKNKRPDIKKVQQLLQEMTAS
Procedure, shortened: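 Recombinant His-TEV-IRAK4 (1-460) at 0.3 μg/ml preincubated 15 min at RT with compounds (10 μM to 0.5 nM) in Hepes pH 7.0 buffer with MgCl2/MnCl2. Reaction started with 2 μM ATP and 300 nM STK1-biotin peptide, run 2 h at RT. ADP formed read by ADP-Glo luminescence.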

T1 sequence (P51617 194-712): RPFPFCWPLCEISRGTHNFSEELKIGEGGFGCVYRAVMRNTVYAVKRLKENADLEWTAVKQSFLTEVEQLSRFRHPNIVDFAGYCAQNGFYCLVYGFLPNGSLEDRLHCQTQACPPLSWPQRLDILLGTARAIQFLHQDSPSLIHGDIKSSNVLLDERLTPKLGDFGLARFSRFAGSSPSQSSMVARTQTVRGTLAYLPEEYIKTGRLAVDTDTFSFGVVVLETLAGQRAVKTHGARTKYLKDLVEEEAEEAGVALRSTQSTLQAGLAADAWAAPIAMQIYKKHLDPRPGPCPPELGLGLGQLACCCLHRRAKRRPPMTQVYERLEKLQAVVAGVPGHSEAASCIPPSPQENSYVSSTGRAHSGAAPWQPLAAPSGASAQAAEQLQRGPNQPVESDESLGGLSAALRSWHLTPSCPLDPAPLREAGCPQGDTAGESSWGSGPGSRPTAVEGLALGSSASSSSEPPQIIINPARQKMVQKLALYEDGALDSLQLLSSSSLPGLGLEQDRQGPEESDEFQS

Row | SMILES | IC50 [1] | IC50 [2]
1 | O=C(/N=c1\[nH]c2cc(N3CCOCC3=O)c(C3CC3)cc2n1CCCO)c1cccc(C(F)F)c1 [Example 209, (E)-N-(6-cyclopropyl-1-(3-hydroxypropyl)-5-(3-oxomorpholino)-1H-benzo[d]imidazol-2(3H)-ylidene)-3-(difluoromethyl)benzamide] | ≤ 100 nM | ≤ 100 nM
2 | O=C(/N=c1\[nH]c2cc(N3CCOCC3=O)cc(F)c2n1CCCO)c1cccc(C(F)(F)F)c1 [Example 210, (E)-N-(7-fluoro-1-(3-hydroxypropyl)-5-(3-oxomorpholino)-1H-benzo[d]imidazol-2(3H)-ylidene)-3-(trifluoromethyl)benzamide] | 100 to 1000 nM | ≤ 100 nM
3 | O=C(/N=c1\[nH]c2cc(N3CCOCC3=O)c(OC(F)F)cc2n1CCCO)c1cccc(C(F)(F)F)c1 [Example 211, (E)-N-(6-(difluoromethoxy)-1-(3-hydroxypropyl)-5-(3-oxomorpholino)-1H-benzo[d]imidazol-2(3H)-ylidene)-3-(trifluoromethyl)benzamide] | ≤ 100 nM | ≤ 100 nM
4 | O=C(/N=c1\[nH]c2cc(N3C(=O)CN4CCC3CC4)ccc2n1CCCO)c1cccc(C(F)F)c1 [Example 212, (E)-3-(difluoromethyl)-N-(1-(3-hydroxypropyl)-5-(3-oxo-1,4-diazabicyclo[3.2.2]nonan-4-yl)-1H-benzo[d]imidazol-2(3H)-ylidene)benzamide] | 100 to 1000 nM | ≤ 100 nM
5 | O=C(/N=c1\[nH]c2cc(N3CC4CC(N4)C3=O)ccc2n1CCCO)c1cccc(C(F)F)c1 (stereo not drawn) [Example 213, (E)-3-(difluoromethyl)-N-(1-(3-hydroxypropyl)-5-(2-oxo-3,6-diazabicyclo[3.1.1]heptan-3-yl)-1H-benzo[d]imidazol-2(3H)-ylidene)benzamide] | 100 to 1000 nM | ≤ 100 nM
6 | O=C(/N=c1\[nH]c2cc(N3CC4CCC(C3=O)N4C3CC3)ccc2n1CCCO)c1cccc(C(F)F)c1 (stereo not drawn) [Example 214, (E)-N-(5-(8-cyclopropyl-2-oxo-3,8-diazabicyclo[3.2.1]octan-3-yl)-1-(3-hydroxypropyl)-1H-benzo[d]imidazol-2(3H)-ylidene)-3-(difluoromethyl)benzamide] | 100 to 1000 nM | ≤ 100 nM
7 | O=C(/N=c1\[nH]c2cc(N3CC4CCC(C3=O)N4C3CC3)ccc2n1CCCO)c1cccc(C(F)(F)F)c1 (stereo not drawn) [Example 215, (E)-N-(5-(8-cyclopropyl-2-oxo-3,8-diazabicyclo[3.2.1]octan-3-yl)-1-(3-hydroxypropyl)-1H-benzo[d]imidazol-2(3H)-ylidene)-3-(trifluoromethyl)benzamide] | > 1000 nM | ≤ 100 nM
8 | O=C(/N=c1\[nH]c2cc(N3CC4CC(N4)C3=O)ccc2n1CCCO)c1cccc(C(F)(F)F)c1 (stereo not drawn) [Example 216, (E)-N-(1-(3-hydroxypropyl)-5-(2-oxo-3,6-diazabicyclo[3.1.1]heptan-3-yl)-1H-benzo[d]imidazol-2(3H)-ylidene)-3-(trifluoromethyl)benzamide] | 100 to 1000 nM | ≤ 100 nM
9 | O=C(/N=c1\[nH]c2cc(N3CC4CCC(O4)C3=O)ccc2n1CCCO)c1cccc(C(F)(F)F)c1 (stereo not drawn) [Example 217, (E)-N-(1-(3-hydroxypropyl)-5-(2-oxo-8-oxa-3-azabicyclo[3.2.1]octan-3-yl)-1H-benzo[d]imidazol-2(3H)-ylidene)-3-(trifluoromethyl)benzamide] | 100 to 1000 nM | ≤ 100 nM
10 | CC1(C)CCOC(=O)N1c1ccc2c(c1)[nH]/c(=N\C(=O)c1cccc(C(F)F)c1)n2CCCO [Example 218, (E)-3-(difluoromethyl)-N-(5-(4,4-dimethyl-2-oxo-1,3-oxazinan-3-yl)-1-(3-hydroxypropyl)-1H-benzo[d]imidazol-2(3H)-ylidene)benzamide] | ≤ 100 nM | ≤ 100 nM
11 | CC1(C)CCOC(=O)N1c1ccc2[nH]c(=NC(=O)c3cccc(C(F)F)c3)n(CCCO)c2c1 [Example 219] | 100 to 1000 nM | ≤ 100 nM
12 | CC1(C)CCOC(=O)N1c1ccc2c(c1)[nH]/c(=N\C(=O)c1cccc(C(F)(F)F)c1)n2CCCO [Example 220, (E)-3-(trifluoromethyl)-N-(5-(4,4-dimethyl-2-oxo-1,3-oxazinan-3-yl)-1-(3-hydroxypropyl)-1H-benzo[d]imidazol-2(3H)-ylidene)benzamide] | ≤ 100 nM | ≤ 100 nM
13 | CC1(C)CCOC(=O)N1c1ccc2[nH]c(=NC(=O)c3cccc(C(F)(F)F)c3)n(CCCO)c2c1 [Example 221] | 100 to 1000 nM | ≤ 100 nM
14 | CC1(C)OCCN(c2ccc3c(c2)[nH]/c(=N\C(=O)c2cccc(C(F)F)c2)n3CCCO)C1=O [Example 222, (E)-3-(difluoromethyl)-N-(5-(2,2-dimethyl-3-oxomorpholino)-1-(3-hydroxypropyl)-1H-benzo[d]imidazol-2(3H)-ylidene)benzamide] | 100 to 1000 nM | ≤ 100 nM
15 | CC1(C)OCCN(c2ccc3c(c2)[nH]/c(=N\C(=O)c2cccc(C(F)(F)F)c2)n3CCCO)C1=O [Example 223, (E)-3-(trifluoromethyl)-N-(5-(2,2-dimethyl-3-oxomorpholino)-1-(3-hydroxypropyl)-1H-benzo[d]imidazol-2(3H)-ylidene)benzamide] | ≤ 100 nM | ≤ 100 nM
16 | CN1CCCN(c2ccc3c(c2)[nH]/c(=N\C(=O)c2cccc(C(F)(F)F)c2)n3CCCO)C1=O [Example 224, (E)-N-(1-(3-hydroxypropyl)-5-(3-methyl-2-oxotetrahydropyrimidin-1(2H)-yl)-1H-benzo[d]imidazol-2(3H)-ylidene)-3-(trifluoromethyl)benzamide] | 100 to 1000 nM | ≤ 100 nM
17 | CN1CCCN(c2ccc3c(c2)[nH]/c(=N\C(=O)c2cccc(C(F)F)c2)n3CCCO)C1=O [Example 225, (E)-N-(1-(3-hydroxypropyl)-5-(3-methyl-2-oxotetrahydropyrimidin-1(2H)-yl)-1H-benzo[d]imidazol-2(3H)-ylidene)-3-(difluoromethyl)benzamide] | 100 to 1000 nM | ≤ 100 nM
18 | CC(F)(CO)Cn1/c(=N/C(=O)c2cccc(C(F)(F)F)c2)[nH]c2cc(N3CCCOC3=O)ccc21 (stereo not drawn) [Example 226, (E)-N-(1-(2-fluoro-3-hydroxy-2-methylpropyl)-5-(2-oxo-1,3-oxazinan-3-yl)-1H-benzo[d]imidazol-2(3H)-ylidene)-3-(trifluoromethyl)benzamide] | ≤ 100 nM | ≤ 100 nM
19 | O=C(/N=c1\[nH]c2cc(N3CCCOC3=O)ccc2n1CC1(F)COC1)c1cccc(C(F)F)c1 [Example 227, (E)-3-(difluoromethyl)-N-(1-((3-fluorooxetan-3-yl)methyl)-5-(2-oxo-1,3-oxazinan-3-yl)-1H-benzo[d]imidazol-2(3H)-ylidene)benzamide] | 100 to 1000 nM | ≤ 100 nM
20 | O=C(/N=c1\[nH]c2cc(N3CCCOC3=O)ccc2n1CC1(F)CCOCC1)c1cccc(C(F)F)c1 [Example 228, (E)-3-(difluoromethyl)-N-(1-((4-fluorotetrahydro-2H-pyran-4-yl)methyl)-5-(2-oxo-1,3-oxazinan-3-yl)-1H-benzo[d]imidazol-2(3H)-ylidene)benzamide] | 100 to 1000 nM | ≤ 100 nM
21 | O=C(/N=c1\[nH]c2cc(N3CCCOC3=O)ccc2n1CC1(F)CCOCC1)c1cccc(C(F)(F)F)c1 [Example 229, (E)-N-(1-((4-fluorotetrahydro-2H-pyran-4-yl)methyl)-5-(2-oxo-1,3-oxazinan-3-yl)-1H-benzo[d]imidazol-2(3H)-ylidene)-3-(trifluoromethyl)benzamide] | 100 to 1000 nM | ≤ 100 nM
22 | N#Cc1cccc(C(=O)/N=c2\[nH]c3cc(N4CCCOC4=O)ccc3n2CC2(F)CCOCC2)c1 [Example 230, (E)-3-cyano-N-(1-((4-fluorotetrahydro-2H-pyran-4-yl)methyl)-5-(2-oxo-1,3-oxazinan-3-yl)-1H-benzo[d]imidazol-2(3H)-ylidene)benzamide] | 100 to 1000 nM | ≤ 100 nM
23 | CC(=O)c1cccc(C(=O)/N=c2\[nH]c3cc(N4CCOCC4=O)ccc3n2CCCO)c1 [Example 231, (E)-3-acetyl-N-(1-(3-hydroxypropyl)-5-(3-oxomorpholino)-1H-benzo[d]imidazol-2(3H)-ylidene)benzamide] | 100 to 1000 nM | ≤ 100 nM
24 | O=C(/N=c1\[nH]c2cc(N3CCOCC3=O)ccc2n1CCCO)c1ccc2scnc2c1 [Example 232, (E)-N-(1-(3-hydroxypropyl)-5-(3-oxomorpholino)-1H-benzo[d]imidazol-2(3H)-ylidene)benzo[d]thiazole-5-carboxamide] | > 1000 nM | ≤ 100 nM
